# In US8741897B2, “Glucocorticoid mimetics, methods of making them, pharmaceutical compositions and uses thereof” (Boehringer Ingelheim Pharmaceuticals Inc., priority 2003, dated 2014):
# Test system: glucocorticoid receptor function
# Test: one or more of the above assays (GR binding and glucocorticoid receptor cell assays: aromatase, IL-6, TAT, MMTV-Luc, IL-8, ICAM-Luc)
# Format: cell-based
# Details: assay not specified per compound
row,SMILES,activity as agonists of the glucocorticoid receptor function in one or more of the above assays
1,"COc1ccc(F)cc1C(C)(C)CC(O)(Cc1cc2nc(C(C)C)ncc2[nH]1)C(F)(F)F (stereo not drawn) [1,1,1-Trifluoro-4-(5-fluoro-2-methoxyphenyl)-2-(2-isopropyl-5H-pyrrolo[3,2-d]pyrimidin-6-ylmethyl)-4-methylpentan-2-ol]",potent agonists
2,"CC(C)(CC(O)(Cc1cc2nc(C(N)=O)ccc2[nH]1)C(F)(F)F)c1cc(Cl)cc2c1OCC2 (stereo not drawn) [2-[4-(5-Chloro-2,3-dihydrobenzofuran-7-yl)-2-hydroxy-4-methyl-2-trifluoromethylpentyl]-1H-pyrrolo[3,2-b]pyridine-5-carboxylic acid amide]",potent agonists
3,"CC(C)(CC(O)(Cc1cc2cc(Cl)ncc2[nH]1)C(F)(F)F)c1cc(Cl)cc2c1OCC2 (stereo not drawn) [4-(5-Chloro-2,3-dihydrobenzofuran-7-yl)-2-(5-chloro-1H-pyrrolo[2,3-c]pyridin-2-ylmethyl)-1,1,1-trifluoro-4-methylpentan-2-ol]",potent agonists
4,"CC(C)(CC(O)(Cc1cc2ccncc2[nH]1)C1CC1)c1cc(Cl)cc2c1OCC2 (stereo not drawn) [4-(5-Chloro-2,3-dihydrobenzofuran-7-yl)-2-cyclopropyl-4-methyl-1-(1H-pyrrolo[2,3-c]pyridin-2-yl)pentan-2-ol]",agonists
5,"CCC(C)(C)C(O)(Cc1cc2ccncc2[nH]1)CC(C)(C)c1cc(F)ccc1OC (stereo not drawn) [2-(5-Fluoro-2-methoxyphenyl)-2,5,5-trimethyl-4-(1H-pyrrolo[2,3-c]pyridin-2-ylmethyl)heptan-4-ol]",agonists
6,"CC(C)(CC(O)(Cc1cc2cc(Cl)ncc2[nH]1)C(F)(F)F)c1cc(F)ccc1O (stereo not drawn) [2-[3-(5-Chloro-1H-pyrrolo[2,3-c]pyridin-2-ylmethyl)-4,4,4-trifluoro-3-hydroxy-1,1-dimethylbutyl]-4-fluorophenol]",potent agonists
7,"CCc1cccc2[nH]c(CC(O)(CC(C)(C)c3cc(F)ccc3OC)C(F)(F)F)cc12 (stereo not drawn) [2-(4-Ethyl-1H-indol-2-ylmethyl)-1,1,1-trifluoro-4-(5-fluoro-2-methoxyphenyl)-4-methylpentan-2-ol]",potent agonists
8,"COc1ccc(-c2cccc3ccccc23)cc1C(C)(C)CC(O)(Cc1cc2cc(N3CCOCC3)ncc2[nH]1)C(F)(F)F (stereo not drawn) [1,1,1-Trifluoro-4-(2-methoxy-5-naphthalen-1-ylphenyl)-4-methyl-2-(5-morpholin-4-yl-1H-pyrrolo[2,3-c]pyridin-2-ylmethyl)pentan-2-ol]",potent agonists
9,"COc1ccc(-c2ccsc2)cc1C(C)(C)CC(O)(Cc1cc2c(C)nccc2[nH]1)C(F)(F)F (stereo not drawn) [1,1,1-Trifluoro-4-(2-methoxy-5-thiophen-3-ylphenyl)-4-methyl-2-(4-methyl-1H-pyrrolo[3,2-c]pyridin-2-ylmethyl)pentan-2-ol]",potent agonists
10,"CCN(C)c1cc2cc(CC(O)(CC(C)(C)c3cc(-c4ccccc4C#N)ccc3O)C(F)(F)F)[nH]c2cn1 (stereo not drawn) [3′-{3-[5-(Ethylmethylamino)-1H-pyrrolo[2,3-c]pyridin-2-ylmethyl]-4,4,4-trifluoro-3-hydroxy-1,1-dimethylbutyl}-4′-hydroxybiphenyl-2-carbonitrile]",potent agonists
11,"Cc1ccc(F)cc1C(C)(C)CC(O)(Cc1cc2cc(N3CCCC3)ncc2[nH]1)C(F)(F)F (stereo not drawn) [1,1,1-Trifluoro-4-(5-fluoro-2-methylphenyl)-4-methyl-2-(5-pyrrolidin-1-yl-1H-pyrrolo[2,3-c]pyridin-2-ylmethyl)pentan-2-ol]",potent agonists
12,"CC(C)Oc1cc2cc(CC(O)(CC(C)(C)c3cc(-c4ccccc4)cc4c3OCC4)C(F)(F)F)[nH]c2cn1 (stereo not drawn) [1,1,1-Trifluoro-2-(5-isopropoxy-1H-pyrrolo[2,3-c]pyridin-2-ylmethyl)-4-methyl-4-(5-phenyl-2,3-dihydrobenzofuran-7-yl)pentan-2-ol]",potent agonists
13,"COc1ccc(-c2cncnc2)cc1C(C)(C)CC(O)(Cc1cc2ccncc2[nH]1)C(F)(F)F (stereo not drawn) [1,1,1-Trifluoro-4-(2-methoxy-5-pyrimidin-5-ylphenyl)-4-methyl-2-(1H-pyrrolo[2,3-c]pyridin-2-ylmethyl)pentan-2-ol]",potent agonists
14,"Cc1nccc2[nH]c(CC(O)(CC(C)(C)c3cc(-c4ccccc4)ccc3O)C(F)(F)F)cc12 (stereo not drawn) [3-[4,4,4-Trifluoro-3-hydroxy-1,1-dimethyl-3-(4-methyl-1H-pyrrolo[3,2-c]pyridin-2-ylmethyl)butyl]biphenyl-4-ol]",potent agonists
15,"Cc1ccc(F)cc1C(C)(C)CC(O)(Cc1cc2cc(N(C)C(C)C)ncc2[nH]1)C(F)(F)F (stereo not drawn) [1,1,1-Trifluoro-4-(5-fluoro-2-methylphenyl)-2-[5-(isopropylmethylamino)-1H-pyrrolo[2,3-c]pyridin-2-ylmethyl]-4-methylpentan-2-ol]",potent agonists
16,"CN1C=CC2=CC(CC(O)(CC(C)(C)c3cc(Cl)cc4c3OCC4)C(F)(F)F)NC2=C1 (stereo not drawn) [4-(5-Chloro-2,3-dihydrobenzofuran-7-yl)-1,1,1-trifluoro-4-methyl-2-(6-methyl-1H-pyrrolo[2,3-c]pyridin-2-ylmethyl)pentan-2-ol]",potent agonists
17,"Cc1c(CC(O)(CC(C)(C)c2ccc(F)cc2O)C(F)(F)F)[nH]c2cnccc12 (stereo not drawn) [5-Fluoro-2-[4,4,4-trifluoro-3-hydroxy-1,1-dimethyl-3-(3-methyl-1H-pyrrolo[2,3-c]pyridin-2-ylmethyl)butyl]phenol]",potent agonists
18,CC(C)(CC(O)(Cn1ccc2c1CCCC2=O)C(F)(F)F)c1cc(F)ccc1O (stereo not drawn),agonists
19,"COc1ccc(F)cc1C(C)(C)CC(O)(Cc1cc2ccncc2[nH]1)C1(F)CC1 (stereo not drawn) [2-(1-Fluorocyclopropyl)-4-(5-fluoro-2-methoxyphenyl)-4-methyl-1-(1H-pyrrolo[2,3-c]pyridin-2-yl)pentan-2-ol]",agonists
20,"CN(C)c1cc2cc(CC(O)(CC(C)(C)c3ccccc3)C(F)(F)F)[nH]c2cn1 (stereo not drawn) [2-(5-Dimethylamino-1H-pyrrolo[2,3-c]pyridin-2-ylmethyl)-1,1,1-trifluoro-4-methyl-4-phenylpentan-2-ol]",potent agonists
21,"CC(C)Oc1cc2cc(CC(O)(CC(C)(C)c3cc(F)ccc3C(F)(F)F)C(F)(F)F)[nH]c2cn1 (stereo not drawn) [1,1,1-Trifluoro-4-(5-fluoro-2-trifluoromethylphenyl)-2-(5-isopropoxy-1H-pyrrolo[2,3-c]pyridin-2-ylmethyl)-4-methylpentan-2-ol]",potent agonists
22,"Cc1ccc(F)cc1C(C)(C)CC(O)(Cc1cc2nc(-c3ccccc3)ncc2[nH]1)C(F)(F)F (stereo not drawn) [1,1,1-Trifluoro-4-(5-fluoro-2-methylphenyl)-4-methyl-2-(2-phenyl-5H-pyrrolo[3,2-d]pyrimidin-6-ylmethyl)pentan-2-ol]",potent agonists
23,"Cc1ccc(F)cc1C(C)(C)CC(O)(Cc1cc2c(C)cncc2[nH]1)C(F)(F)F (stereo not drawn) [1,1,1-Trifluoro-4-(5-fluoro-2-methylphenyl)-4-methyl-2-(4-methyl-1H-pyrrolo[2,3-c]pyridin-2-ylmethyl)pentan-2-ol]",potent agonists
24,"CC(C)Oc1cc2cc(CC(O)(CC(C)(C)c3cccc(F)c3)C(F)(F)F)[nH]c2cn1 (stereo not drawn) [1,1,1-Trifluoro-4-(3-fluorophenyl)-2-(5-isopropoxy-1H-pyrrolo[2,3-c]pyridin-2-ylmethyl)-4-methylpentan-2-ol]",potent agonists
25,"COc1ccc(Br)cc1C(C)(C)CC(O)(Cc1cc2cc(Cl)ncc2[nH]1)C(F)(F)F (stereo not drawn) [4-(5-Bromo-2-methoxyphenyl)-2-(5-chloro-1H-pyrrolo[2,3-c]pyridin-2-ylmethyl)-1,1,1-trifluoro-4-methylpentan-2-ol]",potent agonists
26,"Cc1ccc(F)cc1C(C)(C)CC(O)(Cc1cc2cnccc2[nH]1)C1CC1 (stereo not drawn) [2-Cyclopropyl-4-(5-fluoro-2-methylphenyl)-4-methyl-1-(1H-pyrrolo[3,2-c]pyridin-2-yl)pentan-2-ol]",agonists
27,"CC(C)(CC(O)(Cn1ccc2ncccc21)C(F)(F)F)c1cc(S(C)(=O)=O)cc2c1OCC2 (stereo not drawn) [1,1,1-Trifluoro-4-(5-methanesulfonyl-2,3-dihydrobenzofuran-7-yl)-4-methyl-2-pyrrolo[3,2-b]pyridin-1-ylmethylpentan-2-ol]",potent agonists
28,"CC(C)(CC(O)(Cc1cc2ccncc2[nH]1)C(F)(F)F)c1cc(Br)ccc1O (stereo not drawn) [4-Bromo-2-[4,4,4-trifluoro-3-hydroxy-1,1-dimethyl-3-(1H-pyrrolo[2,3-c]pyridin-2-ylmethyl)butyl]phenol]",potent agonists
29,"COc1ccc(-c2ccsc2)cc1C(C)(C)CC(O)(Cc1cc2cc(Cl)ncc2[nH]1)C(F)(F)F (stereo not drawn) [2-(5-Chloro-1H-pyrrolo[2,3-c]pyridin-2-ylmethyl)-1,1,1-trifluoro-4-(2-methoxy-5-thiophen-3-ylphenyl)-4-methylpentan-2-ol]",potent agonists
30,"CC(C)C(=O)c1ccc2[nH]c(CC(O)(CC(C)(C)c3cc(Cl)cc4c3OCC4)C(F)(F)F)cc2n1 (stereo not drawn) [1-{2-[4-(5-Chloro-2,3-dihydrobenzofuran-7-yl)-2-hydroxy-4-methyl-2-trifluoromethylpentyl]-1H-pyrrolo[3,2-b]pyridin-5-yl}-2-methylpropan-1-one]",potent agonists
